In data set [1] the test system is HeLa cells. The data set is described as follows: Compound screen by flow cytometry: HeLa cell count as surrogate readout of cell viability (z-scoreHeLa). Conditions: for z-scoreHeLa mean: mean of 3 replicates; for z-scoreHeLa rep 1 / cell count rep 1: replicate 1; for z-scoreHeLa rep 2 / cell count rep 2: replicate 2; for z-scoreHeLa rep 3 / cell count rep 3: replicate 3. The data set is classed as cell-based, human. In short, it runs like this:
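The viability surrogate was the count of fixed HeLa cells by flow cytometry, converted to z-scores against DMSO controls with values deviating two-fold excluded. Before counting, cells had been infected with MRSA for 1 h and cleared of extracellular bacteria with gentamicin. They were then exposed overnight to kinase inhibitors in triplicate.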
Background: A flow cytometer gives signals particle by particle.

Data set [2] relates to intracellular MRSA. The data set is classed as cell-based, Staphylococcus aureus. Conditions: for z-scoreMRSA+ mean: mean of 3 replicates; for z-scoreMRSA+ rep 1 / %GFP+ rep 1: replicate 1; for z-scoreMRSA+ rep 2 / %GFP+ rep 2: replicate 2; for z-scoreMRSA+ rep 3 / %GFP+ rep 3: replicate 3. In short, it runs like this:
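HeLa cells were infected with GFP-expressing MRSA (mean MOI 6.8) for 1 h, treated with 30 µg/ml gentamicin for 15 min, then incubated overnight at 37°C with kinase inhibitors and 5 µg/ml gentamicin. Flow cytometry gave % GFP-positive cells, with cell count as viability. Hits were z-score ≤ -2 (infection) and ≥ -3 (count) versus DMSO.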

[3] abbreviates: PKIS compound screen, Yes/No call.
Setting [4] is: PKIS compounds raw data, HeLa cell count.
Where [5] appears, read: PKIS compound screen, Yes/No call (effect without cell death).
Where [6] appears, read: PKIS compounds raw data, MRSA-infected HeLa cells.
Where [7] appears, read: compound screen, HeLa cell count.
Where [8] appears, read: compound screen, MRSA-infected HeLa cells.
Setting [9] is: PKIS compound screen raw data, HeLa cell count.
The mark [10] stands for this setting: PKIS compound screen, HeLa cell count.
Setting [11] is: PKIS compound screen, Yes/No call on z-scoreHeLa.
The mark [12] stands for this setting: PKIS compound screen raw data, MRSA-infected HeLa cells.
Where [13] appears, read: PKIS compound screen, MRSA-infected HeLa cells.
Setting [14] is: PKIS compound screen, Yes/No call on z-scoreMRSA+.

Each structure is given as a SMILES string. Like-named read-outs stand apart in the source and are kept apart here.

With `CCn1c(-c2nonc2N)nc2c(C#CC(C)(C)O)nc(OCCNC)cc21` [GSK949675A], the cell death result in data set [1] (setting [3]) is “No”. For the same compound, in data set [1] (PKIS compound screen), the z-scoreHeLa mean stood at 1.02, the “z-scoreHeLa rep 1” value is 0.13, the “z-scoreHeLa rep 2” value was 1.22 and the “z-scoreHeLa rep 3” value was determined as 1.70. Further, in data set [1] (setting [4]), the “cell count rep 1” value was 4918, the “cell count rep 2” value worked out at 5879 and the “cell count rep 3” value is 10520. Further, the effect result in data set [2] (setting [3]) was “No”. Moreover, in data set [2] (setting [5]), the hit result is “No”. Also, in data set [2] (PKIS compound screen), the “z-scoreMRSA+ mean” value came out at 0.28, the “z-scoreMRSA+ rep 1” value was 0.59, the “z-scoreMRSA+ rep 2” value was found to be 0.84 and the “z-scoreMRSA+ rep 3” value is reported as -0.59. In addition, in data set [2] (setting [6]), the “%GFP+ rep 1” value stood at 15.0%, the “%GFP+ rep 2” value was found to be 16.0% and the “%GFP+ rep 3” value worked out at 13.9%.
For `c1ccc(Cn2ncc3cc(Nc4ncnc5ccccc45)ccc32)cc1` [GW273749A], the cell death entry in data set [1] (setting [3]) was “No”. For the same compound, in data set [1] (PKIS compound screen), the z-scoreHeLa mean was determined as 1.74, the “z-scoreHeLa rep 1” value amounted to 1.98, the “z-scoreHeLa rep 2” value came out at 1.42 and the “z-scoreHeLa rep 3” value is listed as 1.82. Moreover, in data set [1] (setting [4]), the “cell count rep 1” value is on record as 9337, the “cell count rep 2” value was found to be 8148 and the “cell count rep 3” value was 8467. The effect result in data set [2] (setting [3]) was “No”. For the same compound, the hit result in data set [2] (setting [5]) is reported as “No”. In addition, in data set [2] (PKIS compound screen), the “z-scoreMRSA+ mean” value was 0.17, the “z-scoreMRSA+ rep 1” value was -0.11, the “z-scoreMRSA+ rep 2” value came out at 0.34 and the “z-scoreMRSA+ rep 3” value came out at 0.28. Moreover, in data set [2] (setting [6]), the “%GFP+ rep 1” value is 26.5%, the “%GFP+ rep 2” value amounted to 27.8% and the “%GFP+ rep 3” value was found to be 28.8%.
On to `CS(=O)(=O)Nc1ccc(N/C=C2\C(=O)Nc3ccccc32)cc1` [GW278681X], for which, in data set [1] (setting [4]), the “cell count rep 1” value is on record as 4258, the “cell count rep 2” value turned out to be 4720 and the “cell count rep 3” value stood at 6630. For the same compound, the cell death entry in data set [1] (Yes/No call from z-scoreHeLa) was “No”. For the same compound, in data set [1] (setting [7]), the z-scoreHeLa mean is -0.10, the “z-scoreHeLa rep 1” value was -0.47, the “z-scoreHeLa rep 2” value amounted to 0.34 and the “z-scoreHeLa rep 3” value is on record as -0.16. Moreover, in data set [2] (setting [6]), the “%GFP+ rep 1” value turned out to be 11.9%, the “%GFP+ rep 2” value turned out to be 13.7% and the “%GFP+ rep 3” value stood at 12.4%. Moreover, the effect entry in data set [2] (Yes/No call from z-scoreMRSA+) is on record as “No”. The hit result in data set [2] (Yes/No: effect without cell death) is on record as “No”. In addition, in data set [2] (setting [8]), the “z-scoreMRSA+ mean” value is given as -0.46, the “z-scoreMRSA+ rep 1” value is -0.41, the “z-scoreMRSA+ rep 2” value was 0.07 and the “z-scoreMRSA+ rep 3” value is reported as -1.03.
Take `CCCNC(=O)Nc1ccc(N(C)c2ccnc(NC3CC3)n2)cc1` [GW818933X]: in data set [1] (setting [9]), the “cell count rep 1” value is listed as 29169, the “cell count rep 2” value is on record as 27486 and the “cell count rep 3” value turned out to be 16622. In addition, in data set [1] (setting [10]), the z-scoreHeLa mean is listed as -0.08, the “z-scoreHeLa rep 1” value is -0.17, the “z-scoreHeLa rep 2” value amounted to 0.38 and the “z-scoreHeLa rep 3” value was -0.45. Moreover, in data set [1] (setting [3]), the cell death result is listed as “No”. Further, in data set [1] (setting [11]), the cell death entry was “No”. In data set [1] (PKIS compound screen), the z-scoreHeLa mean was 0.64, the “z-scoreHeLa rep 1” value was determined as 0.56, the “z-scoreHeLa rep 2” value is on record as 0.63 and the “z-scoreHeLa rep 3” value came to 0.73. Moreover, in data set [1] (setting [4]), the “cell count rep 1” value stood at 6971, the “cell count rep 2” value is given as 6954 and the “cell count rep 3” value turned out to be 6744. In addition, in data set [2] (setting [12]), the “%GFP+ rep 1” value is 16.2%, the “%GFP+ rep 2” value was 17.1% and the “%GFP+ rep 3” value worked out at 17.2%. Besides, in data set [2] (setting [13]), the “z-scoreMRSA+ mean” value is on record as -0.81, the “z-scoreMRSA+ rep 1” value is on record as -0.69, the “z-scoreMRSA+ rep 2” value is -0.63 and the “z-scoreMRSA+ rep 3” value was -1.10. In data set [2] (setting [3]), the effect entry is recorded as “No”. The hit result in data set [2] (setting [5]) was “No”. For the same compound, the effect result in data set [2] (setting [14]) was “No”. Further, in data set [2] (PKIS compound screen), the “z-scoreMRSA+ mean” value is on record as 0.11, the “z-scoreMRSA+ rep 1” value worked out at 0.16, the “z-scoreMRSA+ rep 2” value stood at 0.22 and the “z-scoreMRSA+ rep 3” value is given as -0.07. In data set [2] (setting [6]), the “%GFP+ rep 1” value was found to be 27.9%, the “%GFP+ rep 2” value was 27.2% and the “%GFP+ rep 3” value worked out at 26.9%.
For `Cc1nnc(-c2ccc(C)c(-c3ccc(C(=O)NCc4ccc(Cl)cc4)cc3)c2)o1` [GW708893X], the cell death entry in data set [1] (setting [3]) is on record as “No”. Further, in data set [1] (PKIS compound screen), the z-scoreHeLa mean came to 0.63, the “z-scoreHeLa rep 1” value is recorded as 0.34, the “z-scoreHeLa rep 2” value came out at 1.23 and the “z-scoreHeLa rep 3” value amounted to 0.31. Besides, in data set [1] (setting [4]), the “cell count rep 1” value came to 5153, the “cell count rep 2” value is 5899 and the “cell count rep 3” value is 7607. Also, the effect entry in data set [2] (setting [3]) was “No”. For the same compound, in data set [2] (setting [5]), the hit result is on record as “No”. Moreover, in data set [2] (PKIS compound screen), the “z-scoreMRSA+ mean” value is 0.76, the “z-scoreMRSA+ rep 1” value worked out at 0.91, the “z-scoreMRSA+ rep 2” value came out at 1.61 and the “z-scoreMRSA+ rep 3” value is given as -0.23. In addition, in data set [2] (setting [6]), the “%GFP+ rep 1” value is given as 16.0%, the “%GFP+ rep 2” value is listed as 18.3% and the “%GFP+ rep 3” value turned out to be 15.1%.
Take `Cc1ccc(NC(=O)c2ccnc(N3CCN(C)CC3)c2)cc1-c1ccc(C(=O)NCC2CC2)cc1` [GW775604X]: in data set [1] (setting [9]), the “cell count rep 1” value was 20638, the “cell count rep 2” value stood at 17919 and the “cell count rep 3” value was found to be 18503. Besides, in data set [1] (setting [10]), the z-scoreHeLa mean was -0.99, the “z-scoreHeLa rep 1” value was -1.62, the “z-scoreHeLa rep 2” value was -1.26 and the “z-scoreHeLa rep 3” value was -0.08. Besides, the cell death entry in data set [1] (setting [3]) is reported as “No”. The cell death entry in data set [1] (setting [11]) is recorded as “No”. Also, in data set [1] (PKIS compound screen), the z-scoreHeLa mean came out at 0.09, the “z-scoreHeLa rep 1” value was -0.44, the “z-scoreHeLa rep 2” value was 1.03 and the “z-scoreHeLa rep 3” value is -0.32. Further, in data set [1] (setting [4]), the “cell count rep 1” value came out at 5307, the “cell count rep 2” value was determined as 7562 and the “cell count rep 3” value was 5095. In data set [2] (setting [12]), the “%GFP+ rep 1” value is listed as 22.9%, the “%GFP+ rep 2” value was found to be 25.3% and the “%GFP+ rep 3” value was 27.3%. In data set [2] (setting [13]), the “z-scoreMRSA+ mean” value was 1.46, the “z-scoreMRSA+ rep 1” value is reported as 1.10, the “z-scoreMRSA+ rep 2” value is 1.61 and the “z-scoreMRSA+ rep 3” value came to 1.66. Besides, the effect result in data set [2] (setting [3]) is “No”. In addition, in data set [2] (setting [5]), the hit result was “No”. Besides, the effect entry in data set [2] (setting [14]) is “No”. In data set [2] (PKIS compound screen), the “z-scoreMRSA+ mean” value is listed as -0.35, the “z-scoreMRSA+ rep 1” value is listed as -0.34, the “z-scoreMRSA+ rep 2” value is on record as -0.43 and the “z-scoreMRSA+ rep 3” value is listed as -0.27. For the same compound, in data set [2] (setting [6]), the “%GFP+ rep 1” value was 25.3%, the “%GFP+ rep 2” value was found to be 23.8% and the “%GFP+ rep 3” value is given as 25.8%.
As for `CS(=O)(=O)CCNCc1cc(-c2cc3c(Nc4ccc(OCc5cccc(F)c5)c(Cl)c4)ncnc3s2)cs1` [GSK300014A], in data set [1] (setting [9]), the “cell count rep 1” value is reported as 28943, the “cell count rep 2” value is given as 38150 and the “cell count rep 3” value is on record as 46044. Also, in data set [1] (setting [10]), the z-scoreHeLa mean stood at 0.95, the “z-scoreHeLa rep 1” value amounted to 1.34, the “z-scoreHeLa rep 2” value is on record as 0.63 and the “z-scoreHeLa rep 3” value is 0.88. The cell death entry in data set [1] (setting [11]) was “No”. Also, in data set [2] (setting [12]), the “%GFP+ rep 1” value worked out at 19.5%, the “%GFP+ rep 2” value turned out to be 21.9% and the “%GFP+ rep 3” value came to 21.6%. In data set [2] (setting [13]), the “z-scoreMRSA+ mean” value amounted to 0.70, the “z-scoreMRSA+ rep 1” value amounted to 0.52, the “z-scoreMRSA+ rep 2” value came to 1.02 and the “z-scoreMRSA+ rep 3” value was determined as 0.55. Also, in data set [2] (setting [5]), the hit entry is on record as “No”. Moreover, in data set [2] (setting [14]), the effect result was “No”.

(Values after article PMC10999543, “Identification of kinase modulators as host-directed therapeutics against intracellular methicillin-resistant Staphylococcus aureus” (Frontiers in Cellular and Infection Microbiology, 2024).)
